From ChEMBL document CHEMBL4814051, “Discovery of effective phosphodiesterase 2 inhibitors with antioxidant activities for the treatment of Alzheimer's disease” (Bioorg Med Chem Lett, 2021) come the findings set out here.

Data set [1] can be described thus: Antioxidant activity assessed as trolox equivalent of AAPH-induced radical scavenging activity preincubated for 15 mins followed by AAPH addition and measured every minute for 80 mins by ORAC-FL assay. The class given is functional. To be noted: time 95.0 min.
Data set [2] in a line: Cytotoxicity against human SH-SY5Y cells assessed as cell viability at 100 uM incubated for 48 hrs by CCK-8 method. It counts as cell-based. The following applies: read-out: Activity.
Data set [3] is described as follows: Cytotoxicity against human SH-SY5Y cells assessed as cell viability at 50 uM incubated for 48 hrs by CCK-8 method. The class given is cell-based. To be noted: read-out: Activity.

In the case of `Cc1nc2ccc(NCc3cc(Cl)cc(Cl)c3O)cc2n2c(-c3ccccc3Cl)nnc12`, the Activity (Trolox equivalents) in data set [1] was 6.8.

For the compound `Cc1nc2ccc(NCc3ccccc3F)cc2n2c(-c3ccccc3Cl)nnc12`, the Activity (Trolox equivalents) in data set [1] amounted to 0.6.

As for `Cc1nc2ccc(NCc3ccc(Cl)cn3)cc2n2c(-c3ccccc3Cl)nnc12`, the Activity (Trolox equivalents) in data set [1] amounted to 1.9.

With `Cc1nc2ccc(NCc3ccc(Cl)cc3O)cc2n2c(-c3ccccc3Cl)nnc12`, the Activity (Trolox equivalents) in data set [1] was 6.9.

On to `Cc1nc2ccc(NCc3c(O)cccc3F)cc2n2c(-c3ccccc3Cl)nnc12`, for which the viability at 48 h, 100 µM in data set [2] was 10%. In addition, the viability at 48 h, 50 µM in data set [3] came to 23%. Moreover, the Activity (Trolox equivalents) in data set [1] is 8.6.

As to `COc1ccc2[nH]cc(CCNC(C)=O)c2c1`, the Activity (Trolox equivalents) in data set [1] was 2.

Regarding `Cc1nc2ccc(NCc3cc(OC(F)(F)F)ccc3O)cc2n2c(-c3ccccc3Cl)nnc12`, in data set [1], the Activity (Trolox equivalents) worked out at 5.2.

As to `Cc1nc2ccc(NCc3ccccn3)cc2n2c(-c3ccccc3Cl)nnc12`, in data set [1], the Activity (Trolox equivalents) was 5.5.

Regarding `Cc1nc2ccc(NCc3cc(Br)ccc3O)cc2n2c(-c3ccccc3Cl)nnc12`, the Activity (Trolox equivalents) in data set [1] was 2.6.

Take `Cc1nc2ccc(NCc3cc(Cl)ccc3O)cc2n2c(-c3ccccc3Cl)nnc12`: the Activity (Trolox equivalents) in data set [1] was 3.9.

On to `Cc1nc2ccc(NCc3ccccc3O)cc2n2c(-c3ccccc3Cl)nnc12`, for which, in data set [1], the Activity (Trolox equivalents) amounted to 3.7.

Turning to `Cc1nc2ccc(NCc3ccc(F)cc3)cc2n2c(-c3ccccc3Cl)nnc12`, the Activity (Trolox equivalents) in data set [1] came out at 0.2.

`COc1ccc(O)c(CNc2ccc3nc(C)c4nnc(-c5ccccc5Cl)n4c3c2)c1`: the Activity (Trolox equivalents) in data set [1] turned out to be 8.

Consider `Cc1nc2ccc(NCc3ccc(F)cc3O)cc2n2c(-c3ccccc3Cl)nnc12`, for which the viability at 48 h, 100 µM in data set [2] came out at 39%. Also, the viability at 48 h, 50 µM in data set [3] was determined as 53%. For the same compound, in data set [1], the Activity (Trolox equivalents) worked out at 8.4.

On to `Cc1nc2ccc(NCc3cc(F)ccc3O)cc2n2c(-c3ccccc3Cl)nnc12`, for which the Activity (Trolox equivalents) in data set [1] turned out to be 8.1.

Turning to `Cc1nc2ccc(/N=C/c3ccccc3O)cc2n2c(-c3ccccc3Cl)nnc12`, in data set [1], the Activity (Trolox equivalents) amounted to 0.3.

Regarding `Cc1nc2ccc(/N=C/c3ccc(F)cc3O)cc2n2c(-c3ccccc3Cl)nnc12`, in data set [1], the Activity (Trolox equivalents) amounted to 0.2.
